Where two headings read alike, the source gives them in different places.

The test system of one assay is Histaminic bronchospasm. The assay can be described thus: Histaminic bronchospasm in the Guinea Pig (histamine aerosol technique). The following applies: for responders at 50 mg/kg: 50 mg/kg P.O., 45 minutes after treatment, 0.3% histamine aerosol; for ED50: read-out: Bronchospasmolytic activity ED50; for affinity for the bronchopulmonary system; activities (in words): summary of Table II; for responders at 25 mg/kg: * Dose used: 25 mg/kg P.O. The class given is in vivo.

Assay [1] concerns electrical stimulation of the upper laryngic nerve. The assay can be described thus: Antitussive properties in the Cat (test of Domenjoz, electrical stimulation of the upper laryngic nerve). The class given is in vivo. The following applies: for inhibition in vivo at 10 mg/kg / inhibition in vivo at 20 mg/kg: Felis catus, intraduodenal, read-out: Antitussive activity, Mean (percentage of inhibition); for inhibition in vivo at 20 mg/kg: 20 mg/kg I.D. As for the experimental part:
The bronchospasmolytic and also antitussive activities of these compounds were investigated by means of the following tests:
2. Investigation of Antitussive Properties in the Cat
The test used was then of Domenjoz R.(Arch. Exp. Pathol. v. Pharmacol. 215, 1952).
The electrical stimulation of the upper laryngic nerve had the following characteristics: 2v, 6 Hz square waves of 5 msec - period of stimulation 10 to 20 seconds at intervals of 7 minutes 5 seconds. The activity of the product was evaluated as a percentage of inhibition.

[2] abbreviates: Cavia porcellus, po, 0.75 h, read-out: Bronchospasmolytic activity, % activity.
[3] abbreviates: Cavia porcellus, po, 0.75 h, P.O., linearisation method, ] [: 5% confidence limit of ED50.

On to `O=C(c1ccc(Cl)cc1)N1CCCCC1CCN1CCN(c2ccc(F)cc2)CC1` (stereo not drawn) [Compound 2], for which, in the assay with Histaminic bronchospasm (setting [2]), the responders at 50 mg/kg worked out at 100%. For the same compound, the ED50 – broadly, the dose that gives a 50% effect, or the effect in half of the subjects – in the assay on Histaminic bronchospasm (setting [3]) was 25 mg/kg. Besides, the “affinity for the bronchopulmonary system; activities (in words)” value (“affinity for the bronchopulmonary system” below) in the assay on Histaminic bronchospasm is given as “particularly marked”. In addition, in assay [1] (10 mg/kg I.D.), the inhibition in vivo at 10 mg/kg is 0%.
`O=C(c1ccccc1)N1CCCCC1CCN1CCN(c2ccc(Cl)cc2)CC1` (stereo not drawn) [Compound 7]: the responders at 50 mg/kg with Histaminic bronchospasm (setting [2]) is 60%. Also, the inhibition in vivo at 20 mg/kg in assay [1] came out at 74%.
`COc1ccc2c(c1)C13CCCCC1C(C2)N(C)CC3` (stereo not drawn) [Dextrome-torphane, Dextrometorphane, reference compound]: the responders at 100 mg/kg in the assay with Histaminic bronchospasm (setting [2]) worked out at 0%. For the same compound, in assay [1], the inhibition in vivo at 10 mg/kg worked out at 76.2 ± 34%.
Regarding `O=C(c1ccccc1)N1CCCCC1CCN1CCN(c2ccc(F)cc2)CC1` (stereo not drawn) [Compound 1], the responders at 50 mg/kg in the assay with Histaminic bronchospasm (setting [2]) worked out at 60%. Moreover, the inhibition in vivo at 10 mg/kg in assay [1] (10 mg/kg I.D.) turned out to be 73.7 ± 13.7%. For the same compound, the “antitussive properties (in words)” value in assay [1] (summary of Table II) is “interesting antitussive properties”.
Regarding `O=C(c1ccc(F)cc1)N1CCC(CCN2CCN(c3ccc(Cl)cc3)CC2)CC1` [Compound 12], the responders at 50 mg/kg in the assay on Histaminic bronchospasm (setting [2]) was found to be 70%. In addition, the ED50 with Histaminic bronchospasm (setting [3]) amounted to 30.9 mg/kg. Further, in assay [1], the inhibition in vivo at 20 mg/kg came to 0%.
For the compound `O=C(c1ccc(Cl)cc1)N1CCC(CCN2CCN(c3ccc(Cl)cc3)CC2)CC1` [Compound 10, 1-(4-chloro)benzolyl-4-{2-[4-(4-chloro)phenyl] -piperazinyl} -ethyl piperidine], the responders at 50 mg/kg in the assay on Histaminic bronchospasm (setting [2]) was found to be 100%. Also, the inhibition in vivo at 20 mg/kg in assay [1] was 0%.
On to `CN(C)CCOC(c1ccccc1)c1ccccc1` [Diphenyl-dramine, Diphenyldramine, reference compound], for which the responders at 10 mg/kg with Histaminic bronchospasm (Cavia porcellus, inhaled or nasal, 0.75 h, read-out: Bronchospasmolytic activity, % activity) came to 93%. In the assay on Histaminic bronchospasm (Cavia porcellus, po, 0.75 h), the ED50 worked out at 4.5 mg/kg. In assay [1], the inhibition in vivo at 10 mg/kg is 65.3 ± 9.5%.
`O=C(c1ccc(Cl)cc1)N1CCC(CCN2CCN(c3ccc(F)cc3)CC2)CC1` [Compound 13]: the responders at 25 mg/kg in the assay on Histaminic bronchospasm (setting [2]) worked out at 100%. For the same compound, the ED50 in the assay with Histaminic bronchospasm (setting [3]) came out at 11.6 mg/kg. Besides, in the assay with Histaminic bronchospasm, the “affinity for the bronchopulmonary system” value is given as “particularly marked”. Further, the inhibition in vivo at 20 mg/kg in assay [1] was found to be 0%.
Consider `O=C(c1ccc(F)cc1)N1CCC(CCN2CCN(c3ccc(F)cc3)CC2)CC1` [Compound 14], for which the responders at 25 mg/kg in the assay on Histaminic bronchospasm (setting [2]) came out at 100%. The 50% effective dose (ED50) with Histaminic bronchospasm (setting [3]) turned out to be 0.94 mg/kg. For the same compound, the “affinity for the bronchopulmonary system” value in the assay with Histaminic bronchospasm is listed as “particularly marked”. For the same compound, the inhibition in vivo at 20 mg/kg in assay [1] worked out at 44.7 ± 29.3%.
On to `O=C(c1ccc(F)cc1)N1CCCCC1CCN1CCN(c2ccc(F)cc2)CC1` (stereo not drawn) [Compound 4, 1-(4-fluoro)-benzoyl-2-{2-[4-(4-fluoro)phenyl]piperazinyl} ethyl piperidine], for which the responders at 50 mg/kg in the assay on Histaminic bronchospasm (setting [2]) amounted to 100%. The ED50 in the assay on Histaminic bronchospasm (setting [3]) is 5.7 mg/kg. Also, in the assay with Histaminic bronchospasm, the “affinity for the bronchopulmonary system” value is listed as “particularly marked”. The inhibition in vivo at 10 mg/kg in assay [1] (10 mg/kg I.D.) was 58.6 ± 19.2%.
Regarding `O=C(c1ccc(Cl)cc1)N1CCCCC1CCN1CCN(c2cccc(Cl)c2)CC1` (stereo not drawn) [Compound 9], in the assay with Histaminic bronchospasm (setting [2]), the responders at 50 mg/kg came to 80%. The ED50 with Histaminic bronchospasm (setting [3]) was 13 mg/kg.

Values taken from patent publication US4029790A, “1-Benzoyl-2 or 4 [2-(4-phenyl-piperazino)-ethyl]-piperidines” (Centre European de Recherches Mauvernay, priority 1974, dated 1977).
